From patent publication US7417050B2 (priority 2002, dated 2008)
pKd: −log10 of the molar value.

Target: α7 nAChR subtype (Rattus norvegicus, UniProt Q05941)
Format: binding
Details: read-out: KD of radioligand

α7 nAChR subtype, sequence (Q05941 23-502 limits assumed): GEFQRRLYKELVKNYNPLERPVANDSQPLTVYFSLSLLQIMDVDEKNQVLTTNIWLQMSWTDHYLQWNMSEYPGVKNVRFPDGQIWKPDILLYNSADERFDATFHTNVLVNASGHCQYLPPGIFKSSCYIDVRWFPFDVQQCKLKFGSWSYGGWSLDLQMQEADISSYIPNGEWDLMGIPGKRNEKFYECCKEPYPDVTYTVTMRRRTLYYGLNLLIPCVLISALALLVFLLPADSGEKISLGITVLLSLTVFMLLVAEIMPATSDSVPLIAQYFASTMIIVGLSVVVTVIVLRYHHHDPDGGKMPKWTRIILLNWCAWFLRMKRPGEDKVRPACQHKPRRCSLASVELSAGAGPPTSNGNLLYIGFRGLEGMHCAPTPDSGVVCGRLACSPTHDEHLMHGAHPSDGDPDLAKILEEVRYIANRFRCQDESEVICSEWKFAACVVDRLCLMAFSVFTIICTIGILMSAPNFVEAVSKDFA

Substance [^125I]-α-Bungarotoxin [[^125I]-α-BTX] has a pKd of 8.78.
